Where no end group is shown, it is not given here.

103 substances from patent US20260242478A1, “ANTIBODIES FOR TARGETING PSMA AND CD28 AND USES THEREOF” (Janux Therapeutics, Inc., priority 2023, published 2026) can be followed below.

For one test, the system named is anti-CD28 scFv. Nature of the test: Panning ELISA of clonal phage, anti-CD28 scFv, with or without CD28 soluble protein (Peptide-9 library). It is filed as binding. The following applies: Peptide-9 library, background (no anti-CD28 scFv). The protocol: Clonal phage were harvested as crude supernatants and screened via standard enzyme linked immunosorbent assays (ELISAs). […] Prior to the addition of clonal phage, wells were incubated with blocking buffer and CD28 soluble protein or blocking buffer alone. Without washing or aspirating, clonal phage supernatants were then added to the wells and incubated for a short time. Wells were then washed followed by detection of bound phage using a horse radish peroxidase conjugated anti-M13 antibody. Clonal phage of interest were then sent for sequence analysis.
Sequence of anti-CD28 scFv (as listed by the source): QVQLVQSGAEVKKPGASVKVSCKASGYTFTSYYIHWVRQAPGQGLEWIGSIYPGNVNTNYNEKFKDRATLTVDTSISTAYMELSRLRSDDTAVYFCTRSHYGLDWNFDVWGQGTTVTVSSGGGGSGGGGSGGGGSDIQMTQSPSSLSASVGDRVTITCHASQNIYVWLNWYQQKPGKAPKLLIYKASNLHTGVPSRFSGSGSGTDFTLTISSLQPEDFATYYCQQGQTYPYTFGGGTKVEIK
Turning to Phage-448 (MAWCPWASFDECLA), the Background signal stood at 0.104. Substance “Phage-42 (MDWCPRHLWVHCFN; not fully specified; cysteine pairing not given here)” showed a Background signal of 0.071. Substance Phage-134 (MDWCPSYLWHECFA) registered a Background signal of 0.096. On to “Phage-40 (MDWCPIDMWDQCFN; not fully specified; cysteine pairing not given here)”, for which the Background signal came out at 0.061. The same measure, in the same setting: the value for Phage-451 (MDWCPRFWWHECYA) was 0.246; that for “Phage-39 (MDWCPMHLWHQCFN; not fully specified; cysteine pairing not given here)” was 0.073; that for Phage-433 (MAWCPWAQFDECLA) was 0.073. Regarding “Phage-59 (MDWCPRDSWHLCFA; left off: large carriers)”, the Background signal is given as 0.073. Still for that read-out and setting: the value for Phage-418 (MYWCPKYMWSECFA) was 0.072.

In the case of Phage-410 (IDWCPRYMWHECFF), the Background signal came out at 0.098. Substance Phage-110 (MDWCPRYLWDECFN) gave a Background signal of 0.069. On the same count and under the same terms, then Phage-98 (MDWCPKYLWDVCFN), with 0.096; and “Phage-60 (MDWCPRTLWYLCFN; left off: large carriers)”, with 0.508; and Phage-112 (MHWCPRALWDVCYN), with 0.077.

In turn, Phage-442 (IYWCPIDRWNDCYN) came in with a Background signal of 0.177.

Consider Phage-126 (MDWCPRFLWNECFN), for which the Background signal is 0.072.

“Phage-53 (MDWCPMHLWNKCFN; not fully specified; cysteine pairing not given here)” showed a Background signal of 0.071.

Substance Phage-405 (MDWCPMSMWAFCFD) came in with a Background signal of 0.102. For the substance Phage-113 (MDWCPRDLWNVCFF), the Background signal was determined as 0.164. On to “Phage-54 (MNWCPRDMWYQCFN; not fully specified; cysteine pairing not given here)”, for which the Background signal is 0.068. In the case of Phage-413 (MDWCPSDMWSNCFN), the Background signal is recorded as 0.070. In the case of Phage-439 (MDWCPRDRWDVCFA), the Background signal was found to be 0.073. Phage-120 (MDWCPRDLWHACFS) gave a Background signal of 0.074. In turn, Phage-402 (MDWCPRHMWHECFH) displayed a Background signal of 0.067. The same measure, in the same setting: the value for Phage-428 (MNWCPSTMWNRCLT) was 0.067. On to Phage-116 (MDWCPRDLWYACFA), for which the Background signal is 0.072. Consider Phage-419 (VDWCPAHMWNECYN), for which the Background signal was 0.208. Same read-out and setting: the value for “Phage-55 (QDWCPRHMWSFCFH; not fully specified; cysteine pairing not given here)” was 0.138.

Phage-129 (MDWCPSYLWTVCFA) returned a Background signal of 0.062. Substance Phage-136 (MHWCPIYLWDECFN) showed a Background signal of 0.071.

For Phage-415 (MDWCPMYMWHKCFH), the Background signal worked out at 0.099. On the same count and under the same terms, the value for Phage-446 (MDWCPRDRWDDCFN) was 0.069; that for Phage-438 (MDWCPMSRWAFCFD) was 0.071. In the case of Phage-427 (VILCPTTMWNRCFH), the Background signal is 0,100. On the same count and under the same terms, the value for Phage-414 (LYWCPRDMWAYCYS) was 0.068.

As for Phage-123 (MDWCPIHLWNECFA), the Background signal was found to be 0.104. Take Phage-124 (MDWCPRPLWDMCFF): the Background signal was found to be 0.063. On the same count and under the same terms, the value for Phage-406 (MNWCPIDMWTECFN) was 0.245; that for Phage-436 (MDWCPRDRWADCFN) was 0.063; that for Phage-422 (MYWCPINMWDYCYA) was 0.122. Still for that read-out and setting: the value for Phage-453 (MDWCPSDYWYVCFA) was 0.065; that for Phage-93 (MDWCPRYLWTVCFS) was 0.115. Take “Phage-65 (MDWCPMYLWNECFN; left off: large carriers)”: the Background signal is recorded as 0.064. Same read-out and setting: then Phage-111 (MDWCPFYLWNECFY), with 0.099. As to Phage-94 (MDWCPRDLWSLCFY), the Background signal came out at 0.065. The substance Phage-141 (MDWCPRSLWNVCFF) registered a Background signal of 0.106.

Phage-99 (MDWCPRYLWNMCFH) showed a Background signal of 0.114. “Phage-64 (MDWCPRALWAECFN; left off: large carriers)” returned a Background signal of 0.068.

Substance Phage-96 (MDWCPRTLWAYCFN) had a Background signal of 0.070. Substance Phage-137 (MDWCPRYLWHECFH) showed a Background signal of 0.101. With Phage-132 (MDWCPTYLWFECFN), the Background signal came out at 0.205. Phage-114 (MDWCPRYLWFECFA) registered a Background signal of 0.066. For the substance Phage-420 (MFWCPSTMWNRCFD), the Background signal is 0.063. Phage-449 (MVDCPLISFDECLA): the Background signal was 0.246. The same measure, in the same setting: then Phage-130 (MDWCPRYLWDACFF), with 0.066.

The test is the same for the next values; noted with them: background (no anti-CD28 scFv).
Substance Phage-293 (MDWCPRHLWFECFN) had a Background signal of 0.064. In turn, Phage-376 (MDWCPRHLWTYCFH) returned a Background signal of 0.109. As for Phage-361 (MHWCPRHLWSECFN), the Background signal is recorded as 0.165.

Phage-322 (MDWCPRHLWIECFN) returned a Background signal of 0.339. “Phage-277 (MDWCPRSHWSECFS; not fully specified; cysteine pairing not given here)” had a Background signal of 0.080. In the case of Phage-283 (MDWCPRHLWNECFN), the Background signal was determined as 0.079. On to Phage-360 (MDWCPMFLWHECFS), for which the Background signal is 0.092.

The substance Phage-307 (MDWCPRYLWPVCFH) displayed a Background signal of 0.179. On the same count and under the same terms, then Phage-364 (MDWCPRSLWAQCFY), with 0.067; and Phage-286 (MERCPRYLWHMCYS), with 0.164; and Phage-383 (LAGCQRDLATVCVI), with 0.068. Phage-285 (MDWCPRDLWAMCFA) registered a Background signal of 0.071.

Phage-305 (MDWCPRDLWTECFS) registered a Background signal of 0.080. In the case of Phage-308 (MDWCPKSLWAECFN), the Background signal is reported as 0.395. Phage-325 (MDWCPAYLWDECFA) had a Background signal of 0.096. Phage-294 (MDWCPRSLWDYCFA): the Background signal is given as 0.115.

Consider “Phage-270 (MDWCPRDFWAFCFF; cysteine pairing not given here; also: large carriers left off)”, for which the Background signal is given as 0.118. For the substance Phage-356 (MDWCPMYLWDECFF), the Background signal amounted to 0.082.

Consider Phage-363 (MNWCPMHLWAECFN), for which the Background signal worked out at 0.087. On to Phage-354 (MDWCPRYLWLECFN), for which the Background signal was 0.083. On to Phage-335 (MDWCPRFLWDYCFA), for which the Background signal was found to be 0.146. Turning to Phage-353 (IDWCPLHLWHECYH), the Background signal is given as 0.067. On the same count and under the same terms, the value for Phage-290 (MDWCPRDLWSVCFS) was 0.090; that for Phage-384 (IMWCPTSLWNRCVT) was 0.104; that for Phage-282 (MDWCPRDLWFACFA) was 0.060. Take Phage-373 (MDWCPRILWSDCFN): the Background signal came to 0.082. Regarding Phage-399 (MDWCPRSMWDSCFN), the Background signal is reported as 0.332. In turn, Phage-368 (MSWCPPYLWTVCYN) showed a Background signal of 0.176. Same read-out and setting: then Phage-380 (MDYCPSYLWHECFA), with 0.065.

Phage-324 (MDWCPRHLWYECFS): the Background signal was found to be 0.216. Regarding Phage-300 (MDWCPRHLWFECFF), the Background signal is on record as 0.178.

The substance Phage-397 (MDWCPRAMWDYCFY) had a Background signal of 0.123. As to Phage-351 (MDWCPMNLWHECFA), the Background signal is listed as 0.080.

Phage-303 (MDWCPRYLWTECFS) showed a Background signal of 0.074. Regarding Phage-319 (MSWCPRDLWHLCFF), the Background signal was 0.077.

In turn, Phage-292 (MDWCPRALWDHCFF) displayed a Background signal of 0.081. The substance Phage-341 (MDWCPRHLWDECFN) registered a Background signal of 0.084. The substance Phage-337 (MDWCPKPLWHVCFA) showed a Background signal of 0.069. Phage-327 (MHWCPRDLWHVCFN) came in with a Background signal of 0.071. On to Phage-377 (MDWCPFDLWLECFN), for which the Background signal was determined as 0.087. Consider Phage-381 (MAWCPRILWHQCFN), for which the Background signal is on record as 0.113. For “Phage-271 (MDWCPTSFWNRCFH; not fully specified; cysteine pairing not given here; also: large carriers left off)”, the Background signal came out at 0.102. “Phage-276 (IDWCPKIHWDLCYF; not fully specified; cysteine pairing not given here)” registered a Background signal of 0.072. Substance Phage-388 (MDWCPRFMWNFCFF) returned a Background signal of 2.200. As for Phage-370 (MTWCPAYLWHECFN), the Background signal is given as 0.086. As to Phage-386 (NHWCPTTLWNRCVA), the Background signal stood at 0.293. On to Phage-311 (MDWCPRDLWYQCFN), for which the Background signal is 0.069. In the case of Phage-396 (TDWCPRDMWYLCFN), the Background signal was 0.082.
